# Test results published in US12097173B2, “Volatile organic compound formulations having antimicrobial activity” (priority 2019, dated 2024).
# Tests used:
# Format in all cases: cell-based
# Sclerotinia sclerotiorum = experiment: plate bioassay of volatile test mixtures, growth inhibition; details: for inhibition of Sclerotinia sclerotiorum: 30 hr at 22° C., esters with 1:1 v/v propanoic acid and isobutryic acid (acids to ester 7:2 v/v), 9 ul, acids 7 ul; for percent inhibition of the growth of Sclerotinia sclerotiorum: Table 4, 30 hr at room temperature, compared to control
# Experimental: (§1) FIG. 1 illustrates a plate bioassay to determine the bioactivity of various esters when combined with a 1:1 mix of the two organic acids as per Table 2. The test organisms were as follows—Cercospora (dark-lower left bottom) then clockwise—Phytophthora, Verticillium, Sclerotinia, Pythium. Fusarium, Trichoderma, Rhizoctonia, and Aspergillus. The streaks were Saccharomyces (far right bottom) then Candida, E coli and Bacillus (left bottom). A=control plate, and B=plate with System 1 after incubation for 30 hr.
# (§2) FIG. 9 depicts the biological activities of various test mixtures against a panel of test microbes. A small plug of each organism was placed in the periphery of the PDA plate. In the center well was placed the test solution in the plastic cup holder. A control plate (A) was also set up. After 30 hr the growth of the test organisms was compared to that of the control and the % inhibition was calculated. The (B) plate contained the test mixture. Measurements were made 30 hr after plate set up.
# (§3) FIG. 1. Indicates how the assays were done to yield the data sets in Table 1. The various esters were combined with a 1:1 mixture of propanoic acid and isobutryic acid and these were added 7:2 V/V with the ester to be tested.
# The tests were conducted over the course of 30 hr at 22° C. Measurements were made on appropriate controls and thus the percentage of inhibition calculations could be made on treatments vs the growth on a control organism (non-treated). The bacteria and yeast like organisms were evaluated on the basis of relative growth rates after 30 hr. […] The acids were added at […] individually and combination of the esters with the acids were added at the […] in the plate assay.
# (§4) Tests were conducted as similarly described for Systems 1 and 2 above (FIG. 9) to ascertain the biological activities of various test mixtures against a panel of test microbes. A small plug of each organism was placed in the periphery of the PDA plate. In the center well was placed the test solution in the plastic cup holder. A control plate (A) was also set up. After 30 hr the growth of the test organisms was compared to that of the control and the % inhibition was calculated. The (B) plate contained the test mixture. Measurements were made 30 hr after plate set up.
# Escherichia coli = experiment: plate bioassay of volatile test mixtures, relative growth of streak
# Experimental: as §1, §2, §3
# (§5) Shown in Table 1, are the inhibition and killing effects of propanoic acid, and isobutryic acid together and alone and with various esters. The tests were conducted over the course of 30 hr at 22° C. Measurements were made on appropriate controls and thus the percentage of inhibition calculations could be made on treatments vs the growth on a control organism (non-treated). The bacteria and yeast like organisms were evaluated on the basis of relative growth rates after 30 hr. Those highlighted areas on the table show those compounds (esters) having the most compatibility with propanoic and isobutryic acid 1:1 v/v mixtures with the appropriate esters at a 7:2 ratio—Systems 1 and 2 above. It is from this test that Systems 1 and 2 were discovered. The acids were added at […] individually and combination of the esters with the acids were added at the […] in the plate assay.
# as §4
# Saccharomyces cerevicae = experiment: as above; details: for growth of Saccharomyces cerevicae: relative growth after 30 hr at 22° C., esters with 1:1 v/v propanoic acid and isobutryic acid (7:2 v/v), 9 ul, acids 7 ul; for growth of Saccharomyces cerevisiae: Table 4, 30 hr at room temperature
# Experimental: as §1, §2, §3, §5, §4
# Bacillus subtilus = experiment: as above
# Experimental: as §1, §2, §3, §5, §4
# Candida albicans = experiment: as above
# Experimental: as §1, §2, §3, §5, §4
# Rhizoctonia solani = experiment: plate bioassay of volatile test mixtures, growth inhibition; details: for inhibition of Rhizoctonia solani: 30 hr at 22° C., esters with 1:1 v/v propanoic acid and isobutryic acid (acids to ester 7:2 v/v), 9 ul, acids 7 ul; for percent inhibition of the growth of Rhizoctonia solani: Table 4, 30 hr at room temperature, compared to control
# Experimental: as §1, §2, §3, §5, §4
# Verticillium dahliae = experiment: as above; details: for inhibition of Verticillium dahliae: 30 hr at 22° C., esters with 1:1 v/v propanoic acid and isobutryic acid (acids to ester 7:2 v/v), 9 ul, acids 7 ul; for percent inhibition of the growth of Verticillium dahliae: Table 4, 30 hr at room temperature, compared to control
# Experimental: as §1, §2, §3, §5, §4
# Cercospora beticola = experiment: as above; details: for inhibition of Cercospora beticola: 30 hr at 22° C., esters with 1:1 v/v propanoic acid and isobutryic acid (acids to ester 7:2 v/v), 9 ul, acids 7 ul; for percent inhibition of the growth of Cercospora beticola: Table 4, 30 hr at room temperature, compared to control
# Experimental: as §1, §2, §3, §5, §4
# Phytophthora cinnamomi = experiment: as above; details: for inhibition of Phytophthora cinnamomi: 30 hr at 22° C., esters with 1:1 v/v propanoic acid and isobutryic acid (acids to ester 7:2 v/v), 9 ul, acids 7 ul; for percent inhibition of the growth of Phytophthora cinnamomi: Table 4, 30 hr at room temperature, compared to control
# Experimental: as §1, §2, §3, §5, §4
# Pythium ultimum = experiment: as above; details: for inhibition of Pythium ultimum: 30 hr at 22° C., esters with 1:1 v/v propanoic acid and isobutryic acid (acids to ester 7:2 v/v), 9 ul, acids 7 ul; for percent inhibition of the growth of Pythium ultimum: Table 4, 30 hr at room temperature, compared to control
# Experimental: as §1, §2, §3, §5, §4
# Trichoderma viridae = experiment: as above; details: for inhibition of Trichoderma viridae: 30 hr at 22° C., esters with 1:1 v/v propanoic acid and isobutryic acid (acids to ester 7:2 v/v), 9 ul, acids 7 ul; for percent inhibition of the growth of Trichoderma viridae: Table 4, 30 hr at room temperature, compared to control
# Experimental: as §1, §2, §3, §5, §4
# Fusarium subglutinans = experiment: as above; details: 30 hr at 22° C.; esters with 1:1 v/v propanoic acid and isobutryic acid (acids to ester 7:2 v/v), 9 ul; acids 7 ul
# Experimental: as §1, §3, §5
# Aspergillus fumigatus = experiment: as above; details: 30 hr at 22° C.; esters with 1:1 v/v propanoic acid and isobutryic acid (acids to ester 7:2 v/v), 9 ul; acids 7 ul
# Experimental: as §1, §3, §5
# Fusarium solani = experiment: as above; details: Table 4; 30 hr at room temperature, compared to control
# Experimental: as §2, §4
# (§6) All testing was done according to the methods in Table 4
# Aspergillus flavus = experiment: as above; details: Table 4; 30 hr at room temperature, compared to control
# Experimental: as §2, §4, §6
# [1] = relative growth after 30 hr at 22° C., esters with 1:1 v/v propanoic acid and isobutryic acid (7:2 v/v), 9 ul, acids 7 ul
# [2] = Table 4, 30 hr at room temperature
Compound,inhibition of Sclerotinia sclerotiorum (Sclerotinia sclerotiorum) [%],growth of Escherichia coli (Escherichia coli; [1]),growth of Saccharomyces cerevicae (Saccharomyces cerevicae),growth of Bacillus subtilus (Bacillus subtilus; [1]),growth of Candida albicans (Candida albicans; [1]),inhibition of Rhizoctonia solani (Rhizoctonia solani) [%],inhibition of Verticillium dahliae (Verticillium dahliae) [%],inhibition of Cercospora beticola (Cercospora beticola) [%],inhibition of Phytophthora cinnamomi (Phytophthora cinnamomi) [%],inhibition of Pythium ultimum (Pythium ultimum) [%],inhibition of Trichoderma viridae (Trichoderma viridae) [%],inhibition of Fusarium subglutinans (Fusarium subglutinans) [%],inhibition of Aspergillus fumigatus (Aspergillus fumigatus) [%],percent inhibition of the growth of Fusarium solani (Fusarium solani) [%],percent inhibition of the growth of Aspergillus flavus (Aspergillus flavus) [%],percent inhibition of the growth of Sclerotinia sclerotiorum (Sclerotinia sclerotiorum) [%],growth of Escherichia coli (Escherichia coli; [2]),growth of Saccharomyces cerevisiae (Saccharomyces cerevicae),growth of Bacillus subtilus (Bacillus subtilus; [2]),growth of Candida albicans (Candida albicans; [2]),other results
"CC(C)C(=O)O [Isobutyric Acid, reference compound]",40,No Growth,Growth Observed,No Growth,Growth Observed,86,90,95,100,100,27,67,90,,,,,,,,
CC(C)OC(=O)C(C)C [Isopropyl Isobutyrate],30,No Growth,Growth Observed,No Growth,Growth Observed,43,96,95,−33,100,20,33,0,,,,,,,,
"CCC(=O)O [Propanoic Acid, reference compound]",60,No Growth,Growth Observed,No Growth,Growth Observed,100,96,95,67,91,53,83,80,17,52,0,No,Yes,No,Medium,percent inhibition of the growth of Rhizoctonia solani (Rhizoctonia solani): 81%; percent inhibition of the growth of Verticillium dahliae (Verticillium dahliae): 83%; percent inhibition of the growth of Cercospora beticola (Cercospora beticola): 66%; percent inhibition of the growth of Phytophthora cinnamomi (Phytophthora cinnamomi): 38%; percent inhibition of the growth of Pythium ultimum (Pythium ultimum): 100%; percent inhibition of the growth of Trichoderma viridae (Trichoderma viridae): 45%
CCCOC(=O)C(C)C [Propyl Isobutyrate],40,Inhibited,Growth Observed,Inhibited,Growth Observed,97,88,95,87,98,33,50,50,,,,,,,,
Isoamyl Hexonates [reference compound],,,,,,,,,,,,,,83,66,66,Yes,Yes,Yes,Yes,percent inhibition of the growth of Rhizoctonia solani (Rhizoctonia solani): 0%; percent inhibition of the growth of Verticillium dahliae (Verticillium dahliae): 0%; percent inhibition of the growth of Cercospora beticola (Cercospora beticola): 83%; percent inhibition of the growth of Phytophthora cinnamomi (Phytophthora cinnamomi): 13%; percent inhibition of the growth of Pythium ultimum (Pythium ultimum): 28%; percent inhibition of the growth of Trichoderma viridae (Trichoderma viridae): 13%
